Measured values from the OPERA property sets (Mansouri et al. 2018).

Compound | logP
NS(=O)(=O)c1cccc(Br)c1 | 1.35
NS(=O)(=O)c1ccc(-c2ccccc2)cc1 | 2.24
CC(=O)c1cccc(S(N)(=O)=O)c1 | 0.21
NS(=O)(=O)c1cccc(I)c1 | 1.58
N#Cc1cccc(S(N)(=O)=O)c1 | 0.24
NC(=O)c1cccc(S(N)(=O)=O)c1 | -0.84

Results, then the compound that gave them:

logP | Compound
-0.04 | CC(=O)Nc1ccc(S(N)(=O)=O)cc1
2.06 | CCCCOc1cccc(S(N)(=O)=O)c1
-0.83 | NC(=O)c1ccc(S(N)(=O)=O)cc1
-0.4 | CS(=O)(=O)Nc1ccc(S(N)(=O)=O)cc1
2.99 | CCCCCCOc1ccc(S(N)(=O)=O)cc1[N+](=O)[O-]
0.53 | COc1cccc(S(N)(=O)=O)c1
2.05 | CCCCOc1ccc(S(N)(=O)=O)cc1
